Data: patent US12630534B2 (TAKEDA PHARMACEUTICAL COMPANY LIMITED, priority 2020, dated 2026)

Biological target: T1, human GPR139 (Homo sapiens, UniProt Q6DWJ6)
T1 construct: expressed in transfected cells; host or cells: CHO-TREx (Life Technologies) cells, expression induced with doxycycline
T1 sequence (Q6DWJ6 1-353): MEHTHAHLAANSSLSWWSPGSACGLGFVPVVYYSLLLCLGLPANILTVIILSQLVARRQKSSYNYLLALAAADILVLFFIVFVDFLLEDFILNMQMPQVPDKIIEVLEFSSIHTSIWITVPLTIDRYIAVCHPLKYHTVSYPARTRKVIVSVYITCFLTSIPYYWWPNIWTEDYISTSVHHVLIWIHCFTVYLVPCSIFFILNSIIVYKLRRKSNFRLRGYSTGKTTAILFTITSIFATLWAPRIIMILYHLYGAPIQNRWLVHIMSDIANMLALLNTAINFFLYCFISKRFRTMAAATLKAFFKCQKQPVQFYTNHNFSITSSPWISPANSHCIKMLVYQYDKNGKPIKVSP
Assay: Inhibition rate of the amount of IP1 in GPR139-expressed CHO cells (inverse agonist assay, Test Example 2)
Format: cell-based
Settings: relative value, inhibition rate of Example Compound 2 in Test Example 1 defined as 100%; for inhibition at 30 µM: CHO
Summary of the method: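 CHO-TREx cells with doxycycline-inducible human GPR139 (2 μg/mL, 17 h) were incubated with compound at 2000 cells/well for 40 min at 37° C. IP1 quantified by HTRF (665/615 nm ratio ×10000); inhibition rate expressed relative to a reference compound defined as […].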

Structure (SMILES) | inhibition at 30 µM | Inhibition Rate at 30 μM
Cc1cn(-c2cc(N3CCO[C@H](C)C3)cc(C(F)F)c2F)c(=O)n1Cc1cnn(C(C)C)c1 [Example 98, 1-{3-(difluoromethyl)-2-fluoro-5-[(2R)-2-methylmorpholin-4-yl]phenyl}-4-methyl-3-{[1-(propan-2-yl)-1H-pyrazol-4-yl]methyl}-1,3-dihydro-2H-imidazol-2-one] | 99% | 
CCn1cc(Cn2c(C)cn(-c3cc(C(F)(F)F)nn3CCC3CCC3)c2=O)cn1 [Example 99, 1-[1-(2-Cyclobutylethyl)-3-(trifluoromethyl)-1H-pyrazole-5-yl]-3-[(I-ethyl-1H-pyrazole-4-yl)methyl]-4-methyl-1,3<dihydro-2H-imidazole-2-one] | 101% | 
CCn1cc(Cn2c(C)c(C)n(-c3cc(OC[C@@H]4CCCO4)cc(C(F)(F)F)c3)c2=O)cn1 [Example 100] | 99% | 
Cc1cn(Cc2cnn(C(C)C)c2)c(=O)n1-c1cc(OC[C@@H]2CCCO2)cc(C(F)(F)F)c1 [Example 101, 4-methyl-3-[3-{[(2S)-oxolan-2-yl]methoxy}-5-(trifluoromethyl)phenyl]-1-{[1-(propan-2-yl)-1H-pyrazol-4-yl]methyl}-1,3-dihydro-2H-imidazol-2-one] | 99% | 
CC(C)n1cc(Cn2ccn(-c3cc(C(F)(F)F)cc(N4CCO[C@H](C)C4)n3)c2=O)cn1 [Example 102, 1-{6-[(2R)-2-methylmorpholin-4-yl]-4-(trifluoromethyl)pyridin-2-yl}-3-{[1-(propan-2-yl)-1H-pyrazol-4-yl]methyl}-1,3-dihydro-2H-imidazol-2-one] | 105% | 
Cc1cn(Cc2cnn(C(C)C)c2)c(=O)n1-c1cc(C(F)(F)F)cc(N2CCO[C@H](C)C2)n1 [Example 103, 4-Methy-3-{6-[(2R)-2-methylmorpholine-4-yl]-4-(trifluoromethyl)pyridine-2-yl}-1-{[1-(propane-2-yl)-1H-pyrazole-4-yl]methyl}-1,3-dihydro-2H-imidazole-2-one] | 103% | 
CCn1cc(Cn2cc(C)n(-c3cc(C4CC4)cc(N4CCO[C@H](C)C4)c3)c2=O)cn1 [Example 104, 3-{3-cyclopropyl-5-[(2R)-2-methylmorpholin-4-yl]phenyl}-1-[(1-ethyl-1H-pyrazol-4-yl)methyl]-4-methyl-1,3-dihydro-2H-imidazol-2-one] | 104% | 
CCn1cc(Cn2cc(C)n(-c3cc(OCC(F)(F)F)cc(N4CCO[C@H](C)C4)n3)c2=O)cn1 [Example 105, 1-[(1-ethyl-1H-pyrazol-4-yl)methyl]-4-methyl-3-{6-[(2R)-2-methylmorpholin-4-yl]-4-(2,2,2-trifluoroethoxy)pyridin-2-yl}-1,3-dihydro-2H-imidazol-2-one] | 103% | 
CCn1cc(Cn2cc(C)n(-c3cc(C(F)(F)F)cc(OCC4CCCO4)n3)c2=O)cn1 (centres unmarked) [Example 106, 1-[(1-ethyl-1H-pyrazol-4-yl)methyl]-4-methyl-3-{6-[(oxolan-2-yl)methoxy]-4-(trifluoromethyl)pyridin-2-yl}-1,3-dihydro-2H-imidazol-2-one] | 102% | 
CCn1cc(Cn2cc(C)n(-c3cc(OC[C@@H]4CCCO4)cc(C(F)(F)F)c3F)c2=O)cn1 [Example 107, 1-[(1-ethyl-1H-pyrazol-4-yl)methyl]-3-[2-fluoro-5-{[(2S)-oxolan-2-yl]methoxy}-3-(trifluoromethyl)phenyl]-4-methyl-1,3-dihydro-2H-imidazol-2-one] | 104% | 
CCn1cc(Cn2cc(C)n(-c3cc(C(F)(F)F)cc(OCC4CCCO4)n3)c2=O)cn1 (centres unmarked) [Example 108, 1-[(1-ethyl-1H-pyrazol-4-yl)methyl]-4-methyl-3-{6-[(oxolan-2-yl)methoxy]-4-(trifluoromethyl)pyridin-2-yl}-1,3-dihydro-2H-imidazol-2-one] |  | 102%
CCn1cc(Cn2cc(C)n(-c3cc(C(F)(F)F)cc(OCC4CCCO4)n3)c2=O)cn1 (centres unmarked) [Example 109, 1-[(1-ethyl-1H-pyrazol-4-yl)methyl]-4-methyl-3-{6-[(oxolan-2-yl)methoxy]-4-(trifluoromethyl)pyridin-2-yl}-1,3-dihydro-2H-imidazol-2-one] |  | 101%
CCn1cc(Cn2cc(C)n(-c3cc(C(F)(F)F)cc(NCC4(F)CCC4)n3)c2=O)cn1 [Example 110, 1-[(1-Ethyl-1-pyrazole-4-yl)methyl]-3-[6={[(1-fluorocyclobutyl)methyl]amino}-4-(trifluoromethyl)pyridine-2-yl]-4-methyl-1,3-dihydro-2H-imidazole-2-one] | 101% | 
CCn1cc(Cn2cc(C)n(-c3cc(C(F)(F)F)cc(N4CCOC(F)(F)C4)n3)c2=O)cn1 [Example 111, 3-[6-(2,2-difluoromorpholin-4-yl)-4-(trifluoromethyl)pyridin-2-yl]-1-[(1-ethyl-1H-pyrazol-4-yl)methyl]-4-methyl-1,3-dihydro-2H-imidazol-2-one] | 105% | 
CCn1cc(Cn2ccn(-c3nc(N4CCOC(C)(C)C4)cc(C(F)(F)F)c3F)c2=O)cn1 [Example 112, 1-[6-(2,2-dimethylmorpholin-4-yl)-3-fluoro-4-(trifluoromethyl)pyridin-2-yl]-3-[(1-ethyl-1H-pyrazol-4-yl)methyl]-1,3-dihydro-2H-imidazol-2-one] | 100% | 
CCn1cc(Cn2ccn(-c3cc(N(C)C4CCOCC4)cc(C(C)(C)O)c3F)c2=O)cn1 [Example 113, 1-[(1-ethyl-1H-pyrazol-4-yl)methyl]-3-{2-fluoro-3-(2-hydroxypropan-2-yl)-5-[methyl(oxan-4-yl)amino]phenyl}-1,3-dihydro-2H-imidazol-2-one] | 103% | 
CCn1cc(Cn2c(C)c(C)n(-c3cc(C(F)(F)F)cc(OC[C@H]4CCCO4)n3)c2=O)cn1 [Example 114, 1-[(1-ethyl-1H-pyrazol-4-yl)methyl]-4,5-dimethyl-3-[6-{[(2R)-oxolan-2-yl]methoxy}-4-(trifluoromethyl)pyridin-2-yl]-1,3-dihydro-2H-imidazol-2-one] | 103% | 
CCn1cc(Cn2c(C)c(C)n(-c3cc(C(F)(F)F)cc(OC[C@@H]4CCCO4)n3)c2=O)cn1 [Example 115, 1-[(1-ethyl-1H-pyrazol-4-yl)methyl]-4,5-dimethyl-3-[6-{[(2S)-oxolan-2-yl]methoxy}-4-(trifluoromethyl)pyridin-2-yl]-1,3-dihydro-2H-imidazol-2-one] | 103% | 
CCn1cc(Cn2ccn(-c3cc(OC4CCOCC4)cc(C(F)(F)F)c3F)c2=O)cn1 [Example 116, 1-[(1-ethyl-1H-pyrazol-4-yl)methyl]-3-{2-fluoro-5-[(oxan-4-yl)oxy]-3-(trifluoromethyl)phenyl}-1,3-dihydro-2H-imidazol-2-one] | 101% | 
CCn1cc(Cn2c(C)cn(-c3cc(OC4CCOCC4)cc(C(F)(F)F)c3F)c2=O)cn1 [Example 117, 3-[(1-ethyl-1H-pyrazol-4-yl)methyl]-1-{2-fluoro-5-[(oxan-4-yl)oxy]-3-(trifluoromethyl)phenyl}-4-methyl-1,3-dihydro-2H-imidazol-2-one] | 100% | 
CCn1cc(Cn2ccn(-c3cc(OC[C@@H]4CCCO4)cc(C(F)(F)F)c3F)c2=O)cn1 [Example 118, 1-[(1-ethyl-1H-pyrazol-4-yl)methyl]-3-[2-fluoro-5-{[(2S)-oxolan-2-yl]methoxy}-3-(trifluoromethyl)phenyl]-1,3-dihydro-2H-imidazol-2-one] | 100% | 
Cc1cn(-c2cc(OC3CCOCC3)cc(C(F)(F)F)c2F)c(=O)n1Cc1cnn(C(C)C)c1 [Example 119, 1-{2-fluoro-5-[(oxan-4-yl)oxy]-3-(trifluoromethyl)phenyl}-4-methyl-3-{[1-(propan-2-yl)-1H-pyrazol-4-yl]methyl}-1,3-dihydro-2H-imidazol-2-one] | 101% | 
CCn1cc(Cn2c(C)cn(-c3nc(N4CCOC(C)(C)C4)cc(C(F)(F)F)c3C)c2=O)cn1 [Example 120, 1-[6-(2,2-dimethylmorpholin-4-yl)-3-methyl-4-(trifluoromethyl)pyridin-2-yl]-3-[(1-ethyl-1H-pyrazol-4-yl)methyl]-4-methyl-1,3-dihydro-2H-imidazol-2-one] | 102% | 
CCn1cc(Cn2ccn(-c3nc(NCC4(F)CCC4)cc(C(F)(F)F)c3F)c2=O)cn1 [Example 121, 1-[(1-ethyl-1H-pyrazol-4-yl)methyl]-3-[3-fluoro-6-{[(1-fluorocyclobutyl)methyl]amino}-4-(trifluoromethyl)pyridin-2-yl]-1,3-dihydro-2H-imidazol-2-one] | 101% | 
CCn1cc(Cn2ccn(-c3cc(N(C)C4CCOCC4)cc(C(C)(C)F)c3F)c2=O)cn1 [Example 122, 1-[(1-ethyl-1H-pyrazol-4-yl)methyl]-3-{2-fluoro-3-(2-fluoropropan-2-yl)-5-[methyl(oxan-4-yl)amino]phenyl}-1,3-dihydro-2H-imidazol-2-one] | 103% | 
CCn1cc(Cn2ccn(-c3nc(N4CCOC(F)(F)C4)cc(C(F)(F)F)c3F)c2=O)cn1 [Example 123, 1-[6-(2,2-difluoromorpholin-4-yl)-3-fluoro-4-(trifluoromethyl)pyridin-2-yl]-3-[(1-ethyl-1H-pyrazol-4-yl)methyl]-1,3-dihydro-2H-imidazol-2-one] | 102% | 
